Source: patent US20230348444A1, “NOVEL COMPOUNDS FOR USE IN THE TREATMENT OF DISEASES ASSOCIATED WITH ANGIOTENSIN II” (Vicore Pharma AB, priority 2020, published 2023)
Where two headings read alike, the source gives them in different places.

Assays:
Assay type in all cases: in vitro ADME
CYP2C8 = biological target: T1, CYP2C8 (Homo sapiens, UniProt P10632); assay: CYP inhibition in human liver microsomes (Eurofins protocol ITEMG232); details: probe paclitaxel and amodiaquine, substrates paclitaxel and amodiaquine, read-out: CYP2C8 Inh %
T1 construct: using isoform-specific substrates incubated with human liver microsomes; tissue Eurofins ITEMG232; host or cells: human liver microsomes
T1 sequence (P10632 1-490): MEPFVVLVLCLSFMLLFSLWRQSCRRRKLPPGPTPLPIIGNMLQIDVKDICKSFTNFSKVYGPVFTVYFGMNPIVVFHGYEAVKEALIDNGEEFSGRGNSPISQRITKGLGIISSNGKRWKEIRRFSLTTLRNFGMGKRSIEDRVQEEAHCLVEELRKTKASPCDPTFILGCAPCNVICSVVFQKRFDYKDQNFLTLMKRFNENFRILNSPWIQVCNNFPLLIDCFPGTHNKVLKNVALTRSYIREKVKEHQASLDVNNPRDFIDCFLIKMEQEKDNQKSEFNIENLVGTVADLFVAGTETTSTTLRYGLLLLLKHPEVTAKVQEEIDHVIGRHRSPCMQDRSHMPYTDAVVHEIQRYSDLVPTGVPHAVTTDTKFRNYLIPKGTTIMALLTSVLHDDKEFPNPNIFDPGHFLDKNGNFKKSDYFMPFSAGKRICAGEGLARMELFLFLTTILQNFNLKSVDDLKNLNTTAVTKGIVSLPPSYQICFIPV
Description: (§1) The following substrates were used; CYP1A phenacetin, CYP2B6 bupropion, CYP2C8 paclitaxel and amodiaquine, CYP2C9 diclofenac, CYP2C19 omeprazole, CYP2D6 dextromethorphan, CYP3A midazolam and testosterone.
(§2) At the end of the incubation, the formation of metabolite was monitored by HPLC-MS/MS as the peak area response.

CYP2D6 = biological target: T2, CYP2D6 (Homo sapiens, UniProt P10635); assay: as above; details: probe dextromethorphan, substrate dextromethorphan, read-out: CYP2D6 Inh %
T2 construct: tissue Eurofins ITEMG232; host or cells: human liver microsomes
Description: as §1, §2

CYP2C19 = biological target: T3, CYP2C19 (Homo sapiens, UniProt P33261); assay: as above; details: probe omeprazole, substrate omeprazole, read-out: CYP2C19 Inh %
T3 construct: using isoform-specific substrates incubated with human liver microsomes; tissue Eurofins ITEMG232; host or cells: human liver microsomes
Description: as §1, §2

CYP2B6 = biological target: T4, CYP2B6 (Homo sapiens, UniProt P20813); assay: as above; details: probe bupropion, substrate bupropion, read-out: CYP2B6 Inh %
T4 construct: using isoform-specific substrates incubated with human liver microsomes; tissue Eurofins ITEMG232; host or cells: human liver microsomes
T4 sequence (P20813 1-491): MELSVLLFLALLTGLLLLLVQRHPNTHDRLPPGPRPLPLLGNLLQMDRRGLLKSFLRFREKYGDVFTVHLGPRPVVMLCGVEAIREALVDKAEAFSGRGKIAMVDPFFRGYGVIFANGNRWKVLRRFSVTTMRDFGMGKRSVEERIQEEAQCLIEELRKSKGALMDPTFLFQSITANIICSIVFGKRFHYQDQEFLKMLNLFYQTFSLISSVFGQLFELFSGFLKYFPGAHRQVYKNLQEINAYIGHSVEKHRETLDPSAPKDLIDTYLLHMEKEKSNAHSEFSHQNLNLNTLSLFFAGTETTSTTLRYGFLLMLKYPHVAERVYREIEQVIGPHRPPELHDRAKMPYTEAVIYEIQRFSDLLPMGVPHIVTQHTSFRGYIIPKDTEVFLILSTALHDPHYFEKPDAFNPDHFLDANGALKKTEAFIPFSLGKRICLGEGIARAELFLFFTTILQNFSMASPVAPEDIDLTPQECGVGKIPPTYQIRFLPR
Description: as §1, §2

CYP1A = biological target: T5, CYP1A (Homo sapiens, UniProt P05177); assay: as above; details: probe phenacetin, substrate phenacetin, read-out: CYP1A Inh %
T5 construct: using isoform-specific substrates incubated with human liver microsomes; tissue Eurofins ITEMG232; host or cells: human liver microsomes
T5 sequence (P05177 2-516 limits assumed): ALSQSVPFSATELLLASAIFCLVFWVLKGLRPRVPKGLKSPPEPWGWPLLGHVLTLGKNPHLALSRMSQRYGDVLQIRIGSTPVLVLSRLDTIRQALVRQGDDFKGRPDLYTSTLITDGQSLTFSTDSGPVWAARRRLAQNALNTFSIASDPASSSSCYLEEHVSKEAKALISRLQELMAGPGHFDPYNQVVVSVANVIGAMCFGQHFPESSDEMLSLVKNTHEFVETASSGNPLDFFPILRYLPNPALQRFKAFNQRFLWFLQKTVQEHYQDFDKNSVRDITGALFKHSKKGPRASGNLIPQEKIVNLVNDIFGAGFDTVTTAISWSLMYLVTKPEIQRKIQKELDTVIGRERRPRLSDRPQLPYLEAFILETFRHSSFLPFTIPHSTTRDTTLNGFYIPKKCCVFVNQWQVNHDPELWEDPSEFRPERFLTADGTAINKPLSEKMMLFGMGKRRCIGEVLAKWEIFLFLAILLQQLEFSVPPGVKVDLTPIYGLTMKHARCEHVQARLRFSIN
Description: as §1, §2

CYP3A4&5 = assay: CYP inhibition in human liver microsomes (Eurofins protocol ITEMG232), testosterone substrate; details: probe testosterone, read-out: CYP3A4&5 testosterone Inh %
Description: as §1, §2

CYP3A4 = CYP3A4 (Homo sapiens, UniProt P08684); assay: CYP inhibition in human liver microsomes (Eurofins protocol ITEMG232), midazolam substrate; design: using isoform-specific substrates incubated with human liver microsomes; tissue Eurofins ITEMG232; host or cells: human liver microsomes; details: probe midazolam, read-out: CYP3A4 midazolam Inh %
Description: as §1, §2

CYP2C9 = CYP2C9 (Homo sapiens, UniProt P11712); assay: CYP inhibition in human liver microsomes (Eurofins protocol ITEMG232); design: using isoform-specific substrates incubated with human liver microsomes; tissue Eurofins ITEMG232; host or cells: human liver microsomes; details: probe diclofenac, substrate diclofenac, read-out: CYP2C9 Inh %
Description: as §1, §2

[1] = Metabolic stability in pooled human liver microsomes with or without NADPH; details: human, pooled human liver microsomes, pooled human liver microsomes 0.5 mg/mL in PBS, 1 uM test compound, 37° C.
Description: Pooled human liver microsomes in PBS at a concentration of 0.5 mg/mL was incubated with or without 1 mM NADPH for 70 min at 37° C. Test compound was added after 10 minutes to a final concentration of 1 uM. Samples were withdrawn at 0, 5, 15 and 60 minutes and added to test tubes containing acetonitrile, to stop the reaction, and with terfenadine, used as internal standard. After centrifugation at 10000×g for 5 minutes the supernatant was diluted 1:1 with 1% formic acid. Samples were separated on a reverse phase column and detected by triple quadrupole MSMS (Agilant model 6540). The concentration of the parent compound at the different time points was measured with an external standard curve using terfenadine as internal standard and the initial metabolic rate in the presence or absence of NADPH calculated.

[2] = with 1 mM NADPH, read-out: T1/2, +NaDPH
[3] = without NADPH, read-out: T1/2, no NaDPH

T2 sequence (P10635 whole entry): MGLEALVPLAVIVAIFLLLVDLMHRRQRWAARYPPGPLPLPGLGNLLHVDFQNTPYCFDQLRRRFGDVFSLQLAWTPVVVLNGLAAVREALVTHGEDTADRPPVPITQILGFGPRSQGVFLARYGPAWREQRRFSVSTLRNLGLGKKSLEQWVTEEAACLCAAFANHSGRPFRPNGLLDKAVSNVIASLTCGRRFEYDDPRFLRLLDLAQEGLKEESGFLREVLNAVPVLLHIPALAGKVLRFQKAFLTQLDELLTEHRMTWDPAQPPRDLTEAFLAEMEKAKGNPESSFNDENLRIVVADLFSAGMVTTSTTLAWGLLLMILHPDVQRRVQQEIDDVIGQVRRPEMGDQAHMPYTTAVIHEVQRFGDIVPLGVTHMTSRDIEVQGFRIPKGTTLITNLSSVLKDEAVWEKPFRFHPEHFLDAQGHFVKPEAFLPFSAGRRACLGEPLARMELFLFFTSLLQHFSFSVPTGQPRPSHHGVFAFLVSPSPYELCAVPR
T3 sequence (P33261 whole entry, canonical isoform): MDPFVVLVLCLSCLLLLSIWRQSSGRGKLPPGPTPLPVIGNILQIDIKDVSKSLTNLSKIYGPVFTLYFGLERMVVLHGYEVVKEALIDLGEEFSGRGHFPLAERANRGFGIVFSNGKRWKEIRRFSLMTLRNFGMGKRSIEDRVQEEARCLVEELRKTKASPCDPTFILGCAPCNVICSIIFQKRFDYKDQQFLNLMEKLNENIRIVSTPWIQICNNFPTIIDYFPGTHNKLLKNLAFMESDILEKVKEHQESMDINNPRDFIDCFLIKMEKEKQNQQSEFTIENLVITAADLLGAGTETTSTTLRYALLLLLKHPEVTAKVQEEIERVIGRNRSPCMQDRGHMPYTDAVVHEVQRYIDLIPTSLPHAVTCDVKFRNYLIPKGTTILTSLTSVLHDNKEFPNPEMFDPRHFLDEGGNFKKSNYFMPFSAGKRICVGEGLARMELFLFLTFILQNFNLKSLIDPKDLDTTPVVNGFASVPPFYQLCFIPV
CYP3A4, sequence (P08684 whole entry, canonical isoform): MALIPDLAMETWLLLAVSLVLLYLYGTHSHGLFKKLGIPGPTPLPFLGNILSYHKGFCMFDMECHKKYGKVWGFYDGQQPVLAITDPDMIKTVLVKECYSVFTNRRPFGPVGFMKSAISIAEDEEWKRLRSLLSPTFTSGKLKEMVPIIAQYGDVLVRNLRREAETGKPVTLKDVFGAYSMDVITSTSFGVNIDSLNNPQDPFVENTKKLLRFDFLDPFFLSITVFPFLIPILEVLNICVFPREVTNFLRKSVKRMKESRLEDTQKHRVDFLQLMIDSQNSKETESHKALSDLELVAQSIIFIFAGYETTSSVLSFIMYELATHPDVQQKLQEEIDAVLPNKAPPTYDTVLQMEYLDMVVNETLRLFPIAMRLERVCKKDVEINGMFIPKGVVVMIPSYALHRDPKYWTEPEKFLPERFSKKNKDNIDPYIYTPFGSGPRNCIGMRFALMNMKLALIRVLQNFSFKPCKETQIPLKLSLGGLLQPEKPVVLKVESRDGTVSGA
CYP2C9, sequence (P11712 whole entry, canonical isoform): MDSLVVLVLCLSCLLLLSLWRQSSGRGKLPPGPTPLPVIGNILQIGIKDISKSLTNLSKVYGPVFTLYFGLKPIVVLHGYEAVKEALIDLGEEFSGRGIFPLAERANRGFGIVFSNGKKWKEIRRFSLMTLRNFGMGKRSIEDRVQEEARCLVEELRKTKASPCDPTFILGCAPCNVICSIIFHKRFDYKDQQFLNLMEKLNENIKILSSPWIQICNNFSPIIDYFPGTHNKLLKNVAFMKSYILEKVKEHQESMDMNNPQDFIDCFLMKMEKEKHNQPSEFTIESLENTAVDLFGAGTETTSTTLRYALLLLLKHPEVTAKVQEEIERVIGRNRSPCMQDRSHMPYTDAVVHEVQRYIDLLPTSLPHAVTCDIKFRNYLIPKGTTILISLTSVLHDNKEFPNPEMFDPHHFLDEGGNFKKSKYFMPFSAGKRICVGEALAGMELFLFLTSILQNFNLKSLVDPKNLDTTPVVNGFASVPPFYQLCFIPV

| SMILES | inhibition at 10 µM (CYP2C8) [%] | inhibition at 10 µM (CYP2D6) [%] | inhibition at 10 µM (CYP2C19) [%] | inhibition at 10 µM (CYP2B6) [%] | inhibition at 10 µM (CYP1A) [%] | inhibition at 10 µM (CYP3A4&5) [%] | inhibition at 10 µM (CYP3A4) [%] | inhibition at 10 µM (CYP2C9) [%] | half-life at 1 uM [1, 2] [min] | half-life at 1 uM [1, 3] [min] |
| --- | --- | --- | --- | --- | --- | --- | --- | --- | --- | --- |
| CCCCOC(=O)NS(=O)(=O)c1sc(CC(C)C)cc1-c1ccc(Cn2ccnc2C)c(F)c1 [Example 2, Butyl (3-(3-fluoro-4-((2-methyl-1H-imidazol-1-yl)methyl)phenyl)-5-isobutylthiophen-2-yl)sulfonylcarbamate trifluoroacetic acid] | 80 | 22 | 55 | 41 | 19 | 21 | -15 | 70 | – | – |
| Cc1nccn1Cc1ccc(-c2cc(CC(C)C)sc2S(=O)(=O)NC(=O)OCCO)cc1F.O=C(O)C(F)(F)F [Example 4, 2-Hydroxyethyl (3-(3-fluoro-4-((2-methyl-1H-imidazol-1-yl)methyl)phenyl)-5-isobutyl-thiophen-2-yl)sulfonylcarbamate trifluoroacetic acid] | 54 | 54 | 31 | 55 | 27 | 22 | -66 | 58 | > 60 | > 60 |
| CCc1nccn1Cc1ccc(-c2cc(CC(C)C)sc2S(=O)(=O)NC(=O)OCCC(F)(F)F)cc1F.O=C(O)C(F)(F)F [Example 5, 3,3,3-Trifluoropropyl (3-(4-((2-ethyl-1H-imidazol-1-yl)methyl)-3-fluorophenyl)-5-iso-butyl-thiophen-2-yl)sulfonylcarbamate trifluoroacetic acid] | 64 | 49 | 63 | 37 | 35 | 5 | -24 | 71 | 18 | 55 |
| CC(C)Cc1cc(-c2ccc(Cn3ccnc3C(C)(C)C)c(F)c2)c(S(=O)(=O)NC(=O)OCCO)s1 [Example 17, 2-Hydroxyethyl (3-(4-((2-(tert-butyl)-1H-imidazol-1-yl)methyl)-3-fluorophenyl)-5-isobutylthiophen-2-yl)sulfonylcarbamate] | 78.6 | 73.4 | 53.1 | 33.8 | 29.9 | 3.7 | -20.6 | 36.8 | – | – |
| COC(=O)NS(=O)(=O)c1sc(CC(C)C)cc1-c1ccc(Cn2ccnc2C(C)(C)C)c(F)c1 [Example 20, Methyl (3-(4-((2-(tert-butyl)-1H-imidazol-1-yl)methyl)-3-fluorophenyl)-5-isobutylthiophen-2-yl)sulfonylcarbamate] | 90.5 | 22.3 | 45.6 | 32.6 | 46 | -4.8 | -56.9 | 57.9 | – | – |

Continued, values first:

| inhibition at 10 µM (CYP2C8) [%] | inhibition at 10 µM (CYP2D6) [%] | inhibition at 10 µM (CYP2C19) [%] | inhibition at 10 µM (CYP2B6) [%] | inhibition at 10 µM (CYP1A) [%] | inhibition at 10 µM (CYP3A4&5) [%] | inhibition at 10 µM (CYP3A4) [%] | inhibition at 10 µM (CYP2C9) [%] | half-life at 1 uM [1, 2] [min] | half-life at 1 uM [1, 3] [min] | SMILES |
| --- | --- | --- | --- | --- | --- | --- | --- | --- | --- | --- |
| 44.2 | 16.3 | 13.8 | 16.6 | 58.7 | 8 | -48 | 51.4 | > 60 | > 60 | COC(=O)NS(=O)(=O)c1sc(CC(C)C)cc1-c1ccc(Cn2ccnc2C)c(F)c1 [Example 21, Methyl (3-(3-fluoro-4-((2-methyl-1H-imidazol-1-yl)methyl)phenyl)-5-isobutyl-thio-phen-2-yl)sulfonylcarbamate] |
| 53.9 | 18.9 | 45.9 | 1.6 | -15.3 | 23.8 | 51.7 | 23.3 | 29 | 44 | Cc1nccn1Cc1ccc(-c2cc(CC(C)C)sc2S(=O)(=O)NC(=O)C(C)(C)C)cc1F [Example 22, N-((3-(3-Fluoro-4-((2-methyl-1H-imidazol-1-yl)methyl)phenyl)-5-isobutylthiophen-2-yl)sulfonyl)pivalamide] |
| 74.7 | 5.8 | 51.2 | 16.8 | 16.7 | 12.5 | -14.1 | 47 | – | – | CC(C)Cc1cc(-c2ccc(Cn3ccnc3C(C)(C)C)c(F)c2)c(S(=O)(=O)NC(=O)OCC(C)(C)O)s1 [Example 23, 2-Hydroxy-2-methylpropyl (3-(4-((2-(tert-butyl)-1H-imidazol-1-yl)methyl)-3-fluoro-Phenyl)-5-isobutylthiophen-2-yl)sulfonylcarbamate] |
| – | – | – | – | – | – | – | – | > 60 | > 60 | CCc1nccn1Cc1ccc(-c2cc(CC(C)C)sc2S(=O)(=O)NC(=O)OCCO)cc1F [Example 24, 2-Hydroxyethyl (3-(4-((2-ethyl-1H-imidazol-1-yl)methyl)-3-fluorophenyl)-5-isobutyl-thiophen-2-yl)sulfonylcarbamate] |
| 21.9 | 17.1 | 0.5 | 20 | 23.5 | 26.6 | -28.7 | 50.4 | > 60 | > 60 | CCc1nccn1Cc1ccc(-c2cc(CC(C)C)sc2S(=O)(=O)NC(=O)OC)cc1F [Example 25, Methyl (3-(4-((2-ethyl-1H-imidazol-1-yl)methyl)-3-fluorophenyl)-5-isobutylthiophen-2-yl)sulfonylcarbamate] |
